Reference: publication PMC12308784, “Organometallic Half-Sandwich Complexes of 1,10-Phenanthroline Derivatives with Improved Solubility, Albumin-Binding, and Nanoformulation Potential Targeting Drug Resistance in Cancer” (Inorganic Chemistry, 2025)

Assays:
[1] = target: T1, human serum albumin (HSA) (Homo sapiens, UniProt P02768); test: HSA binding by capillary zone electrophoresis (CZE); conditions: for equiv of complex bound on HSA: CZE
T1 construct: purchased Sigma-Aldrich A8763
Experimental: UV–vis is a simple technique to follow the interaction of half-sandwich metal complexes with HSA in time. Charge transfer bands of the complexes were monitored over a 12 h period (as shown for the RhCp*BP – HSA (1.5:1) system in Figure S16). An initial rapid spectral change can be observed, which is followed by a slower spectral evolution. This phenomenon may indicate (i) a rapid binding interaction followed by a slow rearrangement of the coordination sphere around the Rh center or (ii) that the differing accessibility of binding sites results in biphasic binding kinetics. […] In contrast, minimal spectral changes were detected for the RuCym complexes. […] To further substantiate this observation, CZE was applied. In Figure , the peak of the free RhCp*BP complex is clearly separated from the peaks of the comigrating protein and the protein-bound complex. […] Whereas ca. 50% of the complex is protein-bound after the first 5 min, the equilibration takes ca. 3–4 h. This observation confirms that the accessibility of binding sites for the complexes is not equal in HSA.
6 (a) Electropherograms of the RhCp*BP complex in the absence and presence of 0.5 equiv HSA at pH = 7.4 followed in time and (b) the relative peak area of free RhCp*BP at 210 nm (migration time: 7.4 min) as a function of incubation time. {c complex = 95 μM, c HSA = 48 μM; U = 8 kV; current = 105 μA; PBS’; t = 25 °C}.
The interaction of complex [RhCp*(BP)-Cl]Cl (ca. 100 μM) with HSA (ca. 50 μM) in PBS’ medium was studied by an Agilent 7100 capillary electrophoresis system equipped with a diode-array UV–vis detector (200–600 nm). Fused silica capillaries of 48 cm total length with a 75 μm inner diameter were used (Agilent Technologies). The background electrolyte (BGE) was PBS’ buffer (pH = 7.4), in which the samples were also made. The conditioning process of new capillaries and daily preparation were performed as described formerly. In order to ensure a steady baseline, the capillary was flushed with BGE (2 min) before each run and was rinsed with NaOH (0.1 M; 1.5 min), H2O (1.5 min), and then with BGE (2 min) after each run. The capillary cassette was kept at 25 °C. The hydrodynamic injection was used at 50 mbar for 5 s injection time. For separation, an 8 kV voltage (with ca. 100 μA current) was applied. The sample run time was set to 18 min. The computer program ChemStation (Agilent) was used to record electropherograms.

[2] = ternary complex formation with histidine model 1-methylimidazole by 1H NMR; conditions: PBS’ pH 7.4
Excerpt: Our other aim was to investigate the binding kinetics of RuCymBP over a longer period of time, since MeIm has no such stability problems compared to HSA in a 2 week follow-up.
Slow exchange of the aqua and chlorido complexes on the NMR time scale is not unique for RuCym complexes; formerly we have observed the same phenomenon with 2-picolinate and cyclometalated 4-phenylthiazole complexes. , The ternary complex formation with MeIm is rather slow; at a 1:1 ratio, the emergence of a new peak can be observed after 6 days, and only ca. 10% ternary complex forms after 14 days. By increasing the MeIm excess to 10-fold, the ternary complex becomes detectable after 8 h and about 2/3 of the metal complex transforms to the ternary species after 14 days. ^1H NMR studies on the RhCp*BP – MeIm system indicated a more rapid and almost quantitative interaction (Figure S21). […] The quantity of the ternary complex formed with MeIm agrees very well with previously reported data on RhCp*BPY–MeIm (67%), although the complex formation was reported to be slower for the latter. […]
A Bruker AVANCE III HD Ascend 500 Plus instrument was used for NMR studies. For the characterization of the complexes both the ^1H and ^13C NMR spectra were recorded in CD3OD (10 mM, t = 25 °C). […]
Figure S 19. Fluorescence emission spectra of HSA in the presence of RhCp*BP over 5 h { cRhCp*BP = […]

[3] = release in PBS’ by modified equilibrium dialysis; type: physicochemical; conditions: nonformulated complex, PBS’ pH 7.4
Experimental: The release behavior of RhCp*BP in PBS’ buffer (pH = 7.4) was monitored using a modified equilibrium dialysis device (Figures S22 and S23), and the absorbance (proportional to the complex concentration) was measured for the dialysate phase by online UV–vis spectrophotometry over a period of 16 h.
The release experiments were conducted in PBS’ medium using modified rapid equilibrium dialysis (RED) inserts of Thermo Scientific. Briefly, the receiver compartment of the RED insert was removed in order to fit the dialysis bag into a regular 1 cm quartz cuvette (see Figure S19 for the layout). The dialysis bag (donor compartment) contained 300 μL of aqueous solution of the formulation or the metal complex alone (c = 60 μM) or the HSA or HTP-based formulations. The cuvette was the acceptor/receiver compartment containing PBS’ buffer (2.0 mL). The whole device was capped with the parafilm and the buffer in the cuvette was continuously stirred; no stirring was applied in the RED insert. The release of the complex into the buffer was monitored online using an Agilent Cary 3500 eight-channel photometer. All samples were done in duplicate.

[4] = 0.5 equiv HSA, PBS’ pH 7.4, 25 °C
[5] = c complex = 95 μM, c HSA = 48 μM, PBS’ pH 7.4, 25 °C

T1 sequence (P02768 25-609): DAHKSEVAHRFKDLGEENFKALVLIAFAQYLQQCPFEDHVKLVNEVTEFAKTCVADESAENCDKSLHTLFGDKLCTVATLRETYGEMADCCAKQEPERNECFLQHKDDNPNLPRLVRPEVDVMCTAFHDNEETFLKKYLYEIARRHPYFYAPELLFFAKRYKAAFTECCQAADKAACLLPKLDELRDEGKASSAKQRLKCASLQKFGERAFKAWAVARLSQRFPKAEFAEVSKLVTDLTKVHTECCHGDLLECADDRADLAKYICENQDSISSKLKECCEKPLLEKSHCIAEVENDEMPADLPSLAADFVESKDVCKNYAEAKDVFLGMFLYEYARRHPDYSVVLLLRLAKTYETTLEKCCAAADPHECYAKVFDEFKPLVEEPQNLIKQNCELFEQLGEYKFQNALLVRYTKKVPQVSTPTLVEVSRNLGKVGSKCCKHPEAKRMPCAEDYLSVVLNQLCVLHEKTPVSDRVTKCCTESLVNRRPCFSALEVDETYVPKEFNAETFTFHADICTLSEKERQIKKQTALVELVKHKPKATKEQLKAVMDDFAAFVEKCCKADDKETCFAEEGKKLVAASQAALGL

free complex after 4 h [1, 4] | complex protein-bound after the first 5 min [1, 5] | equilibration time of HSA binding [1, 5] | time for complete diffusion into PBS’ medium [3] | Compound | metal complex unbound after 24 h [1, 4] | equiv of complex bound on HSA [1] | time until the ternary complex is detectable ([2]; 10-fold MeIm excess) | time until the ternary complex peak emerges ([2]; complex:MeIm 1:1)
– | – | – | – | Cc1c(C)c(C)[c-](C)c1C.Clc1ccnc2c1ccc1c(Cl)ccnc12.[Cl-].[Cl-].[Rh+3] [RhCp*DCP, [Rh(III)(η^5-C5Me5)(4,7-dichloro-1,10-phenanthroline)Cl]Cl] | 21% | at least 2 equiv | – | –
– | – | – | – | Cc1ccc(C(C)C)cc1.[Cl-].[Cl-].[Ru+2].c1ccc(-c2ccnc3c2ccc2c(-c4ccccc4)ccnc23)cc1 [RuCymBP, [Ru(II)(η^6-p-cymene)(bathophenanthroline)Cl]Cl] | – | – | 8 h | 6 days
7% | ca. 50% | 3 to 4 h | approximately 9 h | [Rh(III)(η^5-C5Me5)(bathophenanthroline)Cl]Cl [RhCp*BP] | – | at least 2 equiv | – | –
